pEC50, pIC50, pKi: −log10 of the molar value.
How the values were obtained:
CRTH2 [1] = molecular target: T1, CRTH2 (Homo sapiens, UniProt Q9Y5Y4); experiment: [3H]PGD2 radioligand binding on CHO/CRTH2 cell membranes; conditions: competition versus [3H]PGD2, CHO/CRTH2 membranes
T1 construct: expressed in transfected cells; host or cells: Chinese Hamster Ovary (CHO) cells, G418 selected
T1 sequence (Q9Y5Y4 1-395): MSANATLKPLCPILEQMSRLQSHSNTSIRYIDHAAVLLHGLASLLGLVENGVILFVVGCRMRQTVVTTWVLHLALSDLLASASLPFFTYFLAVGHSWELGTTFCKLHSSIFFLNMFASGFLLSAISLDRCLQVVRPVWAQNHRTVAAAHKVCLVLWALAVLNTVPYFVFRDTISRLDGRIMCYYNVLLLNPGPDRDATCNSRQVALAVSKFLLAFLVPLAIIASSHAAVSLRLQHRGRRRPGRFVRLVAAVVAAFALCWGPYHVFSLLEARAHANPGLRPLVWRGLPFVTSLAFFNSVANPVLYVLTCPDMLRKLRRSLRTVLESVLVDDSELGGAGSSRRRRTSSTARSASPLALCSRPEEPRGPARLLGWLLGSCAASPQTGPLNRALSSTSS
Description: (§1) Chinese Hamster Ovary cells were transfected with CRTH2 or DP receptors (CHO/CRTH2 and CHO/DP) and were maintained in culture in a humidified atmosphere at 37° C. (5% CO2) in Minimum Essential Medium (MEM) supplemented with 10% foetal bovine serum, 2 mM glutamine, and 1 mg ml^−1 active G418. The cells were passaged every 2-3 days. For radioligand binding assay, cells were prepared in triple-layer flasks or in 175 cm^2 square flasks (for membrane preparation). For calcium mobilisation assay, cells were grown in a 96 well plate 24 h prior to the assay at a density of 80,000 cells per well.
(§2) Membranes were prepared either from CHO/CRTH2 and CHO/DP cells, or from platelets (as a source of TP receptors). CHO cells grown to confluency were washed with PBS and detached using a Versene solution (15 ml per flask). When the cells were grown in 175 cm^2 square flask, they were collected by scrapping in PBS. The cell suspensions were centrifuged (1,700 rpm, 10 min, 4° C.) and resuspended in 15 ml of buffer (1×HBSS, supplemented with 10 mM HEPES, pH 7.3). Cell suspensions were then homogenised using an Ultra Turrax at setting 4-6 for 20 s. The homogenate was centrifuged at 1,700 rpm for 10 min and the supernatant was collected and centrifuged at 20,000 rpm for 1 h at 4° C. The resulting pellet was resuspended in buffer and stored at −80° C. in aliquots of 200-500 μl. The protein concentration was determined by the method of Bradford (1976), using bovine serum albumin as standard. The platelets were washed by centrifugation at 600×g for 10 min and resuspended in ice-cold assay buffer (10 mM Tris-HCl, pH 7.4, 5 mM Glucose, 120 mM NaCl, 10 μM indomethacin) and directly centrifuged at 20,000 rpm for 30 min at 4° C. The resulting pellet was treated as described above.
(§3) [3H]PGD2 (160 Ci/mmol) binding experiments were performed on membranes prepared as described above. Assays were performed in a final volume of 100 μl of buffer (1×HBSS/HEPES 10 mM, pH 7.3). Cell membranes (15 μg). Cell membranes […] were preincubated at room temperature with varying concentration of competing ligand for 15 min. [3H]PGD2 ([…]) was then added and the incubation continued for a further one hour at room temperature. The reaction was terminated by the addition of 200 μl ice-cold assay buffer to each well, followed by rapid filtration through Whatman GF/B glass fibre filters using a Unifilter Cell harvester (PerkinElmer Life Sciences) and six washes of 300 μl of ice-cold buffer. The Unifilter plates were dried at room temperature for at least 1 h and the radioactivity retained on the filters was determined on a Beta Trilux counter (PerkinElmer Life Sciences), following addition of 40 μl of Optiphase Hi-Safe 3 (Wallac) liquid scintillation. Non specific binding was defined in the presence of […] unlabelled PGD2. Assays were performed in duplicate.

DP receptor = molecular target: T2, DP receptor (Homo sapiens, UniProt Q13258); experiment: [3H]PGD2 radioligand binding on CHO/DP cell membranes; conditions: competition versus [3H]PGD2, CHO/DP membranes
T2 construct: expressed in transfected cells; host or cells: Chinese Hamster Ovary (CHO) cells, G418 selected
T2 sequence (Q13258 1-359): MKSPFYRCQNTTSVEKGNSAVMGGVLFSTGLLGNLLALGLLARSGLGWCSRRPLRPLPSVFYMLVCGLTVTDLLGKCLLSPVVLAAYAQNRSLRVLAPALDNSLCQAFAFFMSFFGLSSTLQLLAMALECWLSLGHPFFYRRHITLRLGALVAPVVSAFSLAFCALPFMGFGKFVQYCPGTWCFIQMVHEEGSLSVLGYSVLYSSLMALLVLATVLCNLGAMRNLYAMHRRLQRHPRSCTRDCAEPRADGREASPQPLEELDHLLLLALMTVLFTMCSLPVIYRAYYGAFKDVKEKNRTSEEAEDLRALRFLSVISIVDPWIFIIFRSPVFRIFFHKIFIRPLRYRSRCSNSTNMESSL
Description: as §1, §2, §3

CRTH2 [2] = molecular target: T1, CRTH2; experiment: Calcium mobilisation assay in CHO/CRTH2 cells (PGD2-induced calcium flux); type: cell-based; conditions: for pIC50: inhibition of PGD2-induced calcium flux, read-out: CRTH2 Ca flux IC50
Description: as §1
Cells were seeded onto poly-D-lysine coated 96-well plates at a density of 80,000 cells per well and incubated at 37° C. overnight to allow the cells to adhere. Cells were washed twice with HBSS and incubated for 1 h at 37° C. in 100 μl HBSS and 100 μl calcium-3-dye (Molecular Devices) solution, supplemented with 4 mM probenecid. Changes in fluorescence were monitored over a 50 s time course with agonist addition at 17s using a Flexstation (Molecular Devices).

Cc1c(S(=O)(=O)CC(N)=O)c2cc(F)ccc2n1CC(=O)O [Compound 4, (3-Carbamoylmethanesulfonyl-5-fluoro-2-methyl-indol-1-yl)-acetic acid]
pKi (CRTH2 [1]): 5.64

Cc1c(S(=O)(=O)Nc2cccc(Cl)c2)c2cc(F)ccc2n1CC(=O)O [Compound 12, [3-(3-Chloro-phenylsulfamoyl)-5-fluoro-2-methyl-indol-1-yl]-acetic acid]
pKi (CRTH2 [1]): 7.35 | pKi (DP receptor): < 5.00 | pIC50 (CRTH2 [2]): 7.09

Cc1c(S(=O)(=O)NCc2ccccc2)c2cc(F)ccc2n1CC(=O)O [Compound 15, (3-Benzylsulfamoyl-5-fluoro-2-methyl-indol-1-yl)-acetic acid]
pKi (CRTH2 [1]): 6.56 | pKi (DP receptor): < 5.00

Cc1c(S(=O)(=O)Nc2ccc(F)cc2)c2cc(F)ccc2n1CC(=O)O [Compound 13, [3-(4-Fluoro-phenylsulfamoyl)-5-fluoro-2-methyl-indol-1-yl]-acetic acid]
pKi (CRTH2 [1]): 6.74 | pIC50 (CRTH2 [2]): 5.78

CCCCC[C@H](O)/C=C/[C@H]1C(=O)C[C@H](O)[C@@H]1C/C=C\CCCC(=O)O [PGD2, prostaglandin D2, reference compound]
pEC50 (CRTH2 [2]; agonist, n=3, read-out: EC50 for increase in intracellular Ca2+ mobilisation): 8.62

Cc1ccc(NS(=O)(=O)c2c(C)n(CC(=O)O)c3ccc(F)cc23)cc1 [Compound 22, (5-Fluoro-2-methyl-3-p-tolylsulfamoyl-indol-1-yl)-acetic acid]
pKi (CRTH2 [1]): 5.91 | pKi (DP receptor): < 5.00

Cc1c(S(=O)(=O)NCc2ccc(Cl)c(Cl)c2)c2cc(F)ccc2n1CC(=O)O [Compound 19, [3-(3,4-Dichloro-benzylsulfamoyl)-5-fluoro-2-methyl-indol-1-yl]-acetic acid]
pKi (CRTH2 [1]): 6.74 | pKi (DP receptor): < 5.00

Cc1c(S(=O)(=O)Nc2ccccc2Cl)c2cc(F)ccc2n1CC(=O)O [Compound 14, [3-(2-Chloro-phenylsulfamoyl)-5-fluoro-2-methyl-indol-1-yl]-acetic acid]
pKi (CRTH2 [1]): 6.65 | pIC50 (CRTH2 [2]): 6.41

Cc1c(S(=O)(=O)c2ccc3ccccc3n2)c2cc(F)ccc2n1CC(=O)O [Compound 8, [5-Fluoro-2-methyl-3-(quinoline-2-sulfonyl)-indol-1-yl]-acetic acid]
pKi (CRTH2 [1]): 6.60 | pIC50 (CRTH2 [2]): 6.48

Cc1c(S(=O)(=O)N(C)Cc2ccccc2)c2cc(F)ccc2n1CC(=O)O [Compound 24, [3-(Benzyl-methyl-sulfamoyl)-5-fluoro-2-methyl-indol-1-yl]-acetic acid]
pKi (CRTH2 [1]): 6.92 | pKi (DP receptor): < 5.00

Cc1cccc(NS(=O)(=O)c2c(C)n(CC(=O)O)c3ccc(F)cc23)c1 [Compound 21, (5-Fluoro-2-methyl-3-m-tolylsulfamoyl-indol-1-yl)-acetic acid]
pKi (CRTH2 [1]): 6.75 | pKi (DP receptor): < 5.00 | pIC50 (CRTH2 [2]): 5.97

Cc1c(S(=O)(=O)Nc2cccnc2)c2cc(F)ccc2n1CC(=O)O [Compound 25, [5-Fluoro-2-methyl-3-(pyridin-3-ylsulfamoyl)-indol-1-yl]-acetic acid]
pKi (CRTH2 [1]): 5.37 | pKi (DP receptor): < 5.00

Cc1c(S(=O)(=O)c2nc3ccccc3s2)c2cc(F)ccc2n1CC(=O)O [Compound 6, [3-(Benzothiazole-2-sulfonyl)-5-fluoro-2-methyl-indol-1-yl]-acetic acid]
pKi (CRTH2 [1]): 6.68 | pIC50 (CRTH2 [2]): 6.46

Cc1c([S+]([O-])c2nc3ccccc3s2)c2cc(F)ccc2n1CC(=O)O (stereo not shown) [Compound 7, [3-(Benzothiazole-2-sulfinyl)-5-fluoro-2-methyl-indol-1-yl]-acetic acid]
pKi (CRTH2 [1]): 7.27 | pIC50 (CRTH2 [2]): 6.79

Cc1c(S(=O)(=O)c2cccc3cccnc23)c2cc(F)ccc2n1CC(=O)O [Compound 9, [5-Fluoro-2-methyl-3-(quinolin-8-ylsulfonyl)-indol-1-yl]-acetic acid]
pKi (CRTH2 [1]): 6.60 | pKi (DP receptor): < 5.00

Cc1c(S(=O)(=O)NCc2ccc(Cl)cc2)c2cc(F)ccc2n1CC(=O)O [Compound 23, [3-(4-Chloro-benzylsulfamoyl)-5-fluoro-2-methyl-indol-1-yl]-acetic acid]
pKi (CRTH2 [1]): 6.79 | pKi (DP receptor): < 5.00

CCCCS(=O)(=O)c1c(C)n(CC(=O)O)c2ccc(F)cc12 [Compound 1, [3-(Butane-1-sulfonyl)-5-fluoro-2-methyl-indol-1-yl]-acetic acid]
pKi (CRTH2 [1]): 6.72 | pKi (DP receptor): < 5.00 | pIC50 (CRTH2 [2]): 6.55

Cc1c(S(=O)(=O)Nc2ccccc2)c2cc(F)ccc2n1CC(=O)O [Compound 18, (5-Fluoro-2-methyl-3-phenylsulfamoyl-indol-1-yl)-acetic acid]
pKi (CRTH2 [1]): 6.63 | pKi (DP receptor): < 5.00

Cc1c(S(=O)(=O)Nc2ccc(Cl)cc2)c2cc(F)ccc2n1CC(=O)O [Compound 11, [3-(4-Chloro-phenylsulfamoyl)-5-fluoro-2-methyl-indol-1-yl]-acetic acid]
pKi (CRTH2 [1]): 7.29 | pKi (DP receptor): < 5.00 | pIC50 (CRTH2 [2]): 6.71

Cc1c(S(=O)(=O)c2ccc(-c3ccccc3)cc2)c2cc(F)ccc2n1CC(=O)O [Compound 2]
pKi (CRTH2 [1]): 7.12 | pKi (DP receptor): < 5.00 | pIC50 (CRTH2 [2]): 6.79

COc1ccccc1NS(=O)(=O)c1c(C)n(CC(=O)O)c2ccc(F)cc12 [Compound 16, [5-Fluoro-3-(2-methoxy-phenylsulfamoyl)-2-methyl-indol-1-yl]-acetic acid]
pKi (CRTH2 [1]): 6.11 | pKi (DP receptor): < 5.00

Cc1c(S(=O)(=O)CC(=O)O)c2cc(F)ccc2n1CC(=O)O [Compound 3, (3-Carboxymethanesulfonyl-5-fluoro-2-methyl-indol-1-yl)-acetic acid]
pKi (CRTH2 [1]): 5.70

COc1cccc(NS(=O)(=O)c2c(C)n(CC(=O)O)c3ccc(F)cc23)c1 [Compound 20, [5-Fluoro-3-(3-methoxy-phenylsulfamoyl)-2-methyl-indol-1-yl]-acetic acid]
pKi (CRTH2 [1]): 6.27 | pKi (DP receptor): < 5.00

COc1ccc(NS(=O)(=O)c2c(C)n(CC(=O)O)c3ccc(F)cc23)cc1 [Compound 17, [5-Fluoro-3-(4-methoxy-phenylsulfamoyl)-2-methyl-indol-1-yl]-acetic acid]
pKi (CRTH2 [1]): 5.84 | pKi (DP receptor): < 5.00

Cc1c(S(=O)(=O)CCS(C)(=O)=O)c2cc(F)ccc2n1CC(=O)O [Compound 5, [5-Fluoro-3-(2-methanesulfonyl-ethanesulfonyl)-2-methyl-indol-1-yl]-acetic acid]
pKi (CRTH2 [1]): 7.05 | pKi (DP receptor): < 5.00 | pIC50 (CRTH2 [2]): 6.57

Cc1c(S(=O)(=O)Cc2ccccc2)c2cc(F)ccc2n1CC(=O)O [Compound 10, (5-Fluoro-2-methyl-3-phenylmethanesulfonyl-1H-indol-1-yl)-acetic acid]
pKi (CRTH2 [1]): 8.22 | pIC50 (CRTH2 [2]): 7.10
